Source: US8299086B2, “Pyrimidine derivatives” (Actelion Pharmaceuticals Ltd., priority 2007, dated 2012)

Target: recombinant human S1P1 receptor (Homo sapiens, UniProt P21453)
Test: GTPγS assay to determine EC50 values
Type: biochemical
Conditions: 35S-GTPγS binding, membranes of CHO cells expressing recombinant human S1P1 receptor
Experimental: GTPγS assay to determine EC50 values
GTPγS binding assays are performed in 96 well microtiter plates (Nunc, 442587) in a final volume of 200 μl, using membrane preparations of CHO cells expressing recombinant human S1P1 receptor. Assay conditions are 20 mM Hepes (Fluka, 54461), 100 mM NaCl (Fluka, 71378), 5 mM MgCl2 (Fluka, 63064), 0.1% BSA (Calbiochem, 126609), 1 μM GDP (Sigma, G-7127), 2.5% DMSO (Fluka, 41644), […] ^35S-GTPγS (Amersham Biosciences, SJ1320). The pH is 7.4. Test compounds are dissolved and diluted in 100% DMSO and pre-incubated at room temperature for 30 min in 150 μl of the above assay buffer, in the absence of ^35S-GTPγS. After addition of 50 μl of ^35S-GTPγS, the assay is incubated for 1 h at rt. The assay is terminated by transfer of the reaction mixture to a Multiscreen plate (Millipore, MAHFC1H60) using a cell harvester from Packard Biosciences, and the plates are washed with ice-cold 10 mM Na2HPO4/NaH2PO4 (70%/30%), dried, sealed at the bottom and, after addition of 25 μl MicroScint20 (Packard Biosciences, order#6013621), sealed on the top. Membrane-bound ^35S-GTPγS is measured with a TopCount from Packard Biosciences.
EC50 is the concentration of agonist inducing 50% of the maximal specific ^35S-GTPγS binding. Specific binding is determined by subtracting non-specific binding from maximal binding. Maximal binding is the amount of cpm bound to the Multiscreen plate in the presence of 10 μM of S1P. Non-specific binding is the amount of binding in the absence of an agonist in the assay.

recombinant human S1P1 receptor, sequence (P21453 whole entry): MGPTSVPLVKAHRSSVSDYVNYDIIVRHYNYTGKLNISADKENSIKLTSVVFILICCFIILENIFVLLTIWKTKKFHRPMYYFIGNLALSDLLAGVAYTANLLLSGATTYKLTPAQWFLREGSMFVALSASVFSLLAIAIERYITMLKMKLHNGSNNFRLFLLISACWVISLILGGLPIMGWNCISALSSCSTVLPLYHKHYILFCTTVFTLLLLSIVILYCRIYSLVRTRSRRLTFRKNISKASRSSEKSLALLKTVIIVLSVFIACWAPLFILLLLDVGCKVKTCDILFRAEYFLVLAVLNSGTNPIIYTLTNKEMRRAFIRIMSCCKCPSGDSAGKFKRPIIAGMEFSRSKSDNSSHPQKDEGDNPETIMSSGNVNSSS

Structure (SMILES) | EC50
CCN(CC)c1nc(C)cc(-c2nc(-c3ccc(CC(=O)N4CCC[C@H]4C(=O)O)cc3)no2)n1 [Example 132] | > 10000 nM

Same assay, conditions: 35S-GTPγS binding, membranes of CHO cells expressing recombinant human S1P1 receptor, pH 7.4

Structure (SMILES) | EC50
CCOc1nc(CC)cc(-c2nc(-c3cc(C)c(OC[C@@H](O)CNC(=O)CO)c(CC)c3)no2)n1 [Example 41, N—((S)-3-{4-[5-(2-ethoxy-6-ethyl-pyrimidin-4-yl)-[1,2,4]oxadiazol-3-yl]-2-ethyl-6-methyl-phenoxy}-2-hydroxy-propyl)-2-hydroxy-acetamide] | 4.5 nM
CCc1cc(-c2noc(-c3cc(CC(C)C)nc(OC)n3)n2)cc(C)c1OC[C@@H](O)CNC(=O)CO [Example 43, N—((S)-3-{2-ethyl-4-[5-(6-isobutyl-2-methoxy-pyrimidin-4-yl)-[1,2,4]oxadiazol-3-yl]-6-methyl-phenoxy}-2-hydroxy-propyl)-2-hydroxy-acetamide] | 0.97 nM
CCc1cc(-c2nnc(-c3cc(C)nc(OC(C)C)n3)o2)cc(C)c1OC[C@@H](O)CNC(=O)CO [Example 89] | 39.4 nM
Cc1cc(-c2nc(-c3ccc(CC(O)CNCCO)cc3)no2)nc(NC(C)C)n1 (stereo not shown) [Example 154] | 331 nM
Cc1cc(-c2nc(-c3ccc(C(O)CN)cc3)no2)nc(NC(C)C)n1 (racemic) [Example 144, rac-2-Amino-1-{4-[5-(2-isopropylamino-6-methyl-pyrimidin-4-yl)-[1,2,4]oxadiazol-3-yl]-phenyl}-ethanol] | 80.3 nM
Cc1cc(-c2nc(-c3cc(C)c(OC[C@@H](O)CNC(=O)CO)c(Cl)c3)no2)nc(OC(C)C)n1 [Example 54, N—((S)-3-{2-chloro-4-[5-(2-isopropoxy-6-methyl-pyrimidin-4-yl)-[1,2,4]oxadiazol-3-yl]-6-methyl-phenoxy}-2-hydroxy-propyl)-2-hydroxy-acetamide] | 1 nM
CCc1cc(-c2noc(-c3cc(C)nc(N(CC)CC)n3)n2)cc(C)c1OC[C@@H](O)CNS(=O)(=O)CC [Example 117] | 22.3 nM
COc1cc(-c2noc(-c3cc(C)nc(NC(C)C)n3)n2)cc(C)c1OC[C@@H](O)CO [Example 78, (S)-3-{4-[5-(2-isopropylamino-6-methyl-pyrimidin-4-yl)-[1,2,4]oxadiazol-3-yl]-2-methoxy-6-methyl-phenoxy}-propane-1,2-diol] | 5.8 nM
CCc1cc(-c2nc(-c3cc(C)nc(N(C)CC(C)C)n3)no2)cc(C)c1OC[C@@H](O)CNC(=O)CO [Example 86, (S)—N-[3-(2-Ethyl-4-{3-[2-(isobutyl-methyl-amino)-6-methyl-pyrimidin-4-yl]-[1,2,4]oxadiazol-5-yl}-6-methyl-phenoxy)-2-hydroxy-propyl]-2-hydroxy-acetamide] | 5.7 nM
CCc1cc(-c2noc(-c3cc(CC(C)C)nc(NC)n3)n2)cc(C)c1OC[C@@H](O)CNC(=O)CO [Example 35, N—((S)-3-{2-ethyl-4-[5-(6-isobutyl-2-methylamino-pyrimidin-4-yl)-[1,2,4]oxadiazol-3-yl]-6-methyl-phenoxy}-2-hydroxy-propyl)-2-hydroxy-acetamide] | 1.37 nM
CCc1cc(-c2noc(-c3cc(C)nc(NC(C)C)n3)n2)cc(C)c1CCC(=O)NCCC(=O)O [Example 134] | 2 nM
CCc1cc(-c2noc(-c3cc(C)nc(NC4CC4)n3)n2)cc(C)c1OC[C@@H](O)CO [Example 63, (S)-3-{4-[5-(2-cyclopropylamino-6-methyl-pyrimidin-4-yl)-[1,2,4]oxadiazol-3-yl]-2-ethyl-6-methyl-phenoxy}-propane-1,2-diol] | 0.25 nM
Cc1cc(-c2nc(-c3cc(C)c(OC[C@@H](O)CNC(=O)CO)c(C)c3)no2)nc(OCC(C)C)n1 [Example 46] | 3.7 nM
Cc1cc(-c2nc(-c3ccc(CC(O)CO)cc3)no2)nc(NC(C)C)n1 (racemic) [Example 149, rac-3-{4-[5-(2-Isopropylamino-6-methyl-pyrimidin-4-yl)-[1,2,4]oxadiazol-3-yl]-phenyl}-propane-1,2-diol] | 25 nM
Cc1cc(-c2nc(-c3cc(C)c(OCC(O)CO)c(C)c3)no2)nc(NC(C)C)n1 (racemic) [Example 19, rac-3-{4-[5-(2-Isopropylamino-6-methyl-pyrimidin-4-yl)-[1,2,4]oxadiazol-3-yl]-2,6-dimethyl-phenoxy}-propane-1,2-diol] | 2.27 nM
CCCOc1nc(C)cc(-c2nc(-c3cc(C)c(OCC(O)CNC(=O)CO)c(C)c3)no2)n1 (racemic) [Example 14, rac-N-(3-{4-[5-(6-Methyl-2-propoxy-pyrimidin-4-yl)-[1,2,4]oxadiazol-3-yl]-2,6-dimethyl-phenoxy}-2-hydroxy-propyl)-2-hydroxy-acetamide] | 26 nM
CCc1cc(-c2noc(-c3cc(C)nc(N(CC)CC)n3)n2)cc(C)c1OCCNC(=O)CN [Example 112] | 12.5 nM
Cc1cc(-c2nc(-c3cc(C)c(OCC(O)CNC(=O)CO)c(C)c3)no2)nc(NC(C)C)n1 (racemic) [Example 7, rac-N-(3-{4-[5-(2-Isopropylamino-6-methyl-pyrimidin-4-yl)-[1,2,4]oxadiazol-3-yl]-2,6-dimethyl-phenoxy}-2-hydroxy-propyl)-2-hydroxy-acetamide] | 0.88 nM
Cc1cc(-c2nc(-c3cc(C)c(OC[C@@H](O)CO)c(Cl)c3)no2)nc(OC(C)C)n1 [Example 81, (S)-3-{2-chloro-4-[5-(2-isopropoxy-6-methyl-pyrimidin-4-yl)-[1,2,4]oxadiazol-3-yl]-6-methyl-phenoxy}-propane-1,2-diol] | 7.4 nM
CCc1cc(-c2noc(-c3cc(C)nc(NC4CC4)n3)n2)cc(C)c1OC[C@@H](O)CNC(=O)CO [Example 31, N—((S)-3-{4-[5-(2-cyclopropylamino-6-methyl-pyrimidin-4-yl)-[1,2,4]oxadiazol-3-yl]-2-ethyl-6-methyl-phenoxy}-2-hydroxy-propyl)-2-hydroxy-acetamide] | 0.17 nM
CCc1cc(-c2nnc(-c3cc(C)nc(OCC(C)C)n3)s2)cc(C)c1OC[C@@H](O)CO [Example 99] | 3730 nM
CCNc1nc(C)cc(-c2nc(-c3cc(C)c(OCC(O)CNC(=O)CO)c(C)c3)no2)n1 (racemic) [Example 4, rac-N-(3-{4-[5-(2-Ethylamino-6-methyl-pyrimidin-4-yl)-[1,2,4]oxadiazol-3-yl]-2,6-dimethyl-phenoxy}-2-hydroxy-propyl)-2-hydroxy-acetamide] | 0.46 nM
CCc1cc(-c2noc(-c3cc(C)nc(NCC(C)C)n3)n2)cc(C)c1OC[C@@H](O)CNC(=O)CO [Example 2, N—((S)-3-{2-Ethyl-4-[5-(2-isobutylamino-6-methyl-pyrimidin-4-yl)-[1,2,4]oxadiazol-3-yl]-6-methyl-phenoxy}-2-hydroxy-propyl)-2-hydroxy-acetamide] | 1.2 nM
CCc1cc(-c2noc(-c3cc(C)nc(NC(C)C)n3)n2)cc(C)c1CCC(=O)NCC(O)CO (stereo not shown) [Example 140] | 12.6 nM
CCN(CC)c1nc(C)cc(-c2nc(-c3ccc(CC(=O)N4CC(C(=O)O)C4)cc3)no2)n1 [Example 131] | 44.6 nM
CCc1cc(-c2noc(-c3cc(C)nc(N(CC)CC)n3)n2)cc(C)c1OC(CO)CO [Example 100, 2-{4-[5-(2-Diethylamino-6-methyl-pyrimidin-4-yl)-[1,2,4]oxadiazol-3-yl]-2-ethyl-6-methyl-phenoxy}-propane-1,3-diol] | 5.1 nM
CCc1cc(-c2noc(-c3cc(C)nc(N(CC)CC)n3)n2)cc(C)c1OC[C@@H](O)CNCCC(=O)O [Example 126, 3-((S)-3-{4-[5-(2-diethylamino-6-methyl-pyrimidin-4-yl)-[1,2,4]oxadiazol-3-yl]-2-ethyl-6-methyl-phenoxy}-2-hydroxy-propylamino)-propionic acid] | 1.4 nM
CCc1cc(-c2noc(-c3cc(C)nc(N(CC)CC)n3)n2)cc(C)c1OCCN1CCC(C(=O)O)C1 (stereo not shown) [Example 109] | 8.4 nM
CCN(CC)c1nc(C)cc(-c2nc(-c3ccc(CCNS(C)(=O)=O)cc3)no2)n1 [Example 128, N-(2-{4-[5-(2-Diethylamino-6-methyl-pyrimidin-4-yl)-[1,2,4]oxadiazol-3-yl]-phenyl}-ethyl)-methanesulfonamide] | 74.4 nM
CCc1cc(-c2noc(-c3cc(C)nc(N(CC)CC)n3)n2)cc(C)c1OCCNCCO [Example 103] | 72.1 nM
